Assay results published in the supplement of paper PMC10307832.

Columns and labels:
Test in all cases: relative viability (nuclei count vs DMSO), 5 days (fraction); higher = more cells survive
201T = test system: 201T
How it was run: (§1)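 Lung cancer cell lines were seeded in 1536-well plates and dosed by pin tool the next day, with either a single drug or a fixed anchor-drug dose combined with five library-drug doses (not always all listed) spaced in √10 steps. Five days later, one step fixed the cells and stained their nuclei (final 0.05% Triton X-100, 1% formaldehyde, 1 ug/ml Hoechst), and nuclei were counted on 4× images. Relative viability is the nuclei count in treated wells divided by the count in vehicle wells, and each value is the median of duplicate plates.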

BEN = test system: BEN
How it was run: as §1

CAL-12T = test system: CAL-12T
How it was run: as §1

HCC-827 = test system: HCC-827
How it was run: as §1

HOP-62 = test system: HOP-62
How it was run: as §1

LCLC-103H = test system: LCLC-103H
How it was run: as §1

LCLC-97TM1 = test system: LCLC-97TM1
How it was run: as §1

LXF-289 = test system: LXF-289
How it was run: as §1

NCI-H1395 = test system: NCI-H1395
How it was run: as §1

NCI-H1437 = test system: NCI-H1437
How it was run: as §1

NCI-H1650 = test system: NCI-H1650
How it was run: as §1

NCI-H1793 = test system: NCI-H1793
How it was run: as §1

NCI-H1944 = test system: NCI-H1944
How it was run: as §1

NCI-H2087 = test system: NCI-H2087
How it was run: as §1

NCI-H2228 = test system: NCI-H2228
How it was run: as §1

NCI-H2405 = test system: NCI-H2405
How it was run: as §1

NCI-H3122 = test system: NCI-H3122
How it was run: as §1

NCI-H322M = test system: NCI-H322M
How it was run: as §1

NCI-H647 = test system: NCI-H647
How it was run: as §1

NCI-H727 = test system: NCI-H727
How it was run: as §1

RERF-LC-KJ = test system: RERF-LC-KJ
How it was run: as §1

SK-LU-1 = test system: SK-LU-1
How it was run: as §1

## O=C(O)c1ccc(-c2c[nH]c3ncc(-c4ccccc4)cc23)cc1C1CCCC1 + Cc1nc(Nc2ncc(C(=O)Nc3c(C)cccc3Cl)s2)cc(N2CCN(CCO)CC2)n1 [Dasatinib] (partner 0.075 µM)
201T; first compound 0.04 µM
  relative viability: 0.58
201T; first compound 0.1265 µM
  relative viability: 0.599
201T; first compound 0.4 µM
  relative viability: 0.523
201T; first compound 1.265 µM
  relative viability: 0.534
BEN; first compound 0.04 µM
  relative viability: 0.291
BEN; first compound 0.1265 µM
  relative viability: 0.374
BEN; first compound 0.4 µM
  relative viability: 0.358
BEN; first compound 1.265 µM
  relative viability: 0.291
CAL-12T; first compound 0.04 µM
  relative viability: 0.484
CAL-12T; first compound 0.1265 µM
  relative viability: 0.602
CAL-12T; first compound 0.4 µM
  relative viability: 0.481
CAL-12T; first compound 1.265 µM
  relative viability: 0.323
HCC-827; first compound 0.04 µM
  relative viability: 0.339
HCC-827; first compound 0.1265 µM
  relative viability: 0.294
HCC-827; first compound 0.4 µM
  relative viability: 0.348
HCC-827; first compound 1.265 µM
  relative viability: 0.381
HOP-62; first compound 0.04 µM
  relative viability: 0.598
HOP-62; first compound 0.1265 µM
  relative viability: 0.669
HOP-62; first compound 0.4 µM
  relative viability: 0.78
HOP-62; first compound 1.265 µM
  relative viability: 0.666
LCLC-103H; first compound 0.04 µM
  relative viability: 0.481
LCLC-103H; first compound 0.1265 µM
  relative viability: 0.426
LCLC-103H; first compound 0.4 µM
  relative viability: 0.499
LCLC-103H; first compound 1.265 µM
  relative viability: 0.545
LCLC-97TM1; first compound 0.04 µM
  relative viability: 0.836
LCLC-97TM1; first compound 0.1265 µM
  relative viability: 0.893
LCLC-97TM1; first compound 0.4 µM
  relative viability: 0.881
LCLC-97TM1; first compound 1.265 µM
  relative viability: 0.686
LXF-289; first compound 0.04 µM
  relative viability: 0.214
LXF-289; first compound 0.1265 µM
  relative viability: 0.258
LXF-289; first compound 0.4 µM
  relative viability: 0.181
LXF-289; first compound 1.265 µM
  relative viability: 0.206
NCI-H1395; first compound 0.04 µM
  relative viability: 0.392
NCI-H1395; first compound 0.1265 µM
  relative viability: 0.396
NCI-H1395; first compound 0.4 µM
  relative viability: 0.365
NCI-H1395; first compound 1.265 µM
  relative viability: 0.426
NCI-H1437; first compound 0.04 µM
  relative viability: 0.385
NCI-H1437; first compound 0.1265 µM
  relative viability: 0.386
NCI-H1437; first compound 0.4 µM
  relative viability: 0.374
NCI-H1437; first compound 1.265 µM
  relative viability: 0.378
NCI-H1650; first compound 0.04 µM
  relative viability: 0.312
NCI-H1650; first compound 0.1265 µM
  relative viability: 0.357
NCI-H1650; first compound 0.4 µM
  relative viability: 0.37
NCI-H1650; first compound 1.265 µM
  relative viability: 0.308
NCI-H1793; first compound 0.04 µM
  relative viability: 0.376
NCI-H1793; first compound 0.1265 µM
  relative viability: 0.473
NCI-H1793; first compound 0.4 µM
  relative viability: 0.373
NCI-H1793; first compound 1.265 µM
  relative viability: 0.342
NCI-H1944; first compound 0.04 µM
  relative viability: 0.227
NCI-H1944; first compound 0.1265 µM
  relative viability: 0.254
NCI-H1944; first compound 0.4 µM
  relative viability: 0.216
NCI-H1944; first compound 1.265 µM
  relative viability: 0.193
NCI-H2087; first compound 0.04 µM
  relative viability: 0.752
NCI-H2087; first compound 0.1265 µM
  relative viability: 0.778
NCI-H2087; first compound 0.4 µM
  relative viability: 0.896
NCI-H2087; first compound 1.265 µM
  relative viability: 0.661
NCI-H2228; first compound 0.04 µM
  relative viability: 0.601
NCI-H2228; first compound 0.1265 µM
  relative viability: 0.607
NCI-H2228; first compound 0.4 µM
  relative viability: 0.519
NCI-H2228; first compound 1.265 µM
  relative viability: 0.395
NCI-H2405; first compound 0.04 µM
  relative viability: 0.207
NCI-H2405; first compound 0.1265 µM
  relative viability: 0.253
NCI-H2405; first compound 0.4 µM
  relative viability: 0.191
NCI-H2405; first compound 1.265 µM
  relative viability: 0.191
NCI-H3122; first compound 0.04 µM
  relative viability: 0.927
NCI-H3122; first compound 0.1265 µM
  relative viability: 0.858
NCI-H3122; first compound 0.4 µM
  relative viability: 0.766
NCI-H3122; first compound 1.265 µM
  relative viability: 0.812
NCI-H322M; first compound 0.04 µM
  relative viability: 0.277
NCI-H322M; first compound 0.1265 µM
  relative viability: 0.267
NCI-H322M; first compound 0.4 µM
  relative viability: 0.239
NCI-H322M; first compound 1.265 µM
  relative viability: 0.237
NCI-H647; first compound 0.04 µM
  relative viability: 0.172
NCI-H647; first compound 0.1265 µM
  relative viability: 0.24
NCI-H647; first compound 0.4 µM
  relative viability: 0.178
NCI-H647; first compound 1.265 µM
  relative viability: 0.139
NCI-H727; first compound 0.04 µM
  relative viability: 0.298
NCI-H727; first compound 0.1265 µM
  relative viability: 0.398
NCI-H727; first compound 0.4 µM
  relative viability: 0.442
NCI-H727; first compound 1.265 µM
  relative viability: 0.364
RERF-LC-KJ; first compound 0.04 µM
  relative viability: 0.758
RERF-LC-KJ; first compound 0.1265 µM
  relative viability: 0.778
RERF-LC-KJ; first compound 0.4 µM
  relative viability: 0.783
RERF-LC-KJ; first compound 1.265 µM
  relative viability: 0.687
SK-LU-1; first compound 0.04 µM
  relative viability: 0.169
SK-LU-1; first compound 0.1265 µM
  relative viability: 0.194
SK-LU-1; first compound 0.4 µM
  relative viability: 0.157
SK-LU-1; first compound 1.265 µM
  relative viability: 0.165
